Strand notation (5' to 3'): a small letter for the sugar, then the base; units joined by * are phosphorothioate-linked, units joined directly phosphodiester-linked; [ ] holds rarer units or linkages, { } end groups; capitals alone tell only the bases. e = 2'-O-(2-methoxyethyl) (MOE); l = locked nucleic acid (LNA); [5mC] = 5-methylcytosine; d = 2'-deoxy (DNA)
System: human ABCB11 mRNA
Assay: ASO treatment of primary human hepatocytes (PHH), ABCB11 mRNA by RT-qPCR normalized to B2M
Format: cell-based
Details: primary human hepatocytes, 5 μM ASO, normalized to untreated PHHs (UNT)
Method in brief: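 ABCB11 mRNA was quantified by Taqman RT-qPCR relative to B2M and expressed as fold over untreated cells. Cells were cryopreserved primary human hepatocytes given ASO in Matrigel-supplemented medium 4 h after plating, at 1.25, 2.5, 5 or 10 μM (5 μM for screening), and harvested after 72 hrs.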

Substance	ABCB11 mRNA FC (5 μM ASO vs. UNT) [fold change]
CO-6988 (antisense eT*eG*eG*lA*eT*lG*eT*lA*eG*lA*eT*lG*eA*lA*eT*lG*eG*l[5mC]*eA*eA)	1.093
CO-6989 (antisense eT*eG*lG*eA*lT*eG*lT*eA*lG*eA*lT*eG*lA*eA*lT*eG*lG*e[5mC]*eA*eA)	1.469
CO-6990 (antisense eT*eG*lG*eA*eT*lG*eT*eA*lG*eA*eT*lG*eA*eA*lT*eG*eG*l[5mC]*eA*eA)	1.16
CO-6991 (antisense eT*eG*eG*eA*lT*eG*eT*eA*lG*eA*eT*eG*lA*eA*eT*eG*lG*e[5mC]*eA*eA)	1.193
CO-6992 (antisense eT*eG*eG*lA*eT*eGeT*lA*eG*eA*eT*lG*eA*eA*eT*lG*eG*e[5mC]*eA*eA)	0.992
CO-6993 (antisense eT*eG*eG*eA*eT*lG*eT*eA*eG*eA*lT*eG*eA*eA*eT*lG*eG*e[5mC]*eA*eA)	1.209
CO-6994 (antisense eT*eG*eG*eA*lT*eG*eT*eA*eG*lA*eT*eG*eA*eA*lT*eG*eG*e[5mC]*eA*eA)	1.131
CO-6995 (antisense eG*eT*eG*eA*eG*lG*d[5mC]*dA*lT*d[5mC]*dA*lG*dG*dT*lA*eA*eG*eT*eT*e[5mC])	1.277
CO-6996 (antisense eG*eT*eG*lA*eG*dG*d[5mC]*lA*dT*d[5mC]*dA*lG*dG*dT*dA*lA*eG*eT*eT*e[5mC])	1.314
CO-6997 (antisense eG*eT*eG*eA*lG*dG*d[5mC]*dA*lT*d[5mC]*dA*dG*lG*dT*dA*eA*lG*eT*eT*e[5mC])	1.058
CO-6998 (antisense eG*eT*eG*lA*eG*lG*e[5mC]*lA*eT*l[5mC]*eA*lGeG*lT*eA*lA*eG*lT*eT*e[5mC])	1.246
CO-6999 (antisense eG*eT*lG*eA*lG*eG*l[5mC]*eA*lT*e[5mC]*lA*eG*lGeT*lA*eA*lG*eT*eT*e[5mC])	1.24
CO-7000 (antisense eG*eT*lG*eA*eG*lG*e[5mC]*eA*lT*e[5mC]*eA*lG*eG*eT*lA*eA*eG*lT*eT*e[5mC])	1.203
CO-7001 (antisense eG*eT*eG*eA*lG*eG*e[5mC]*eA*lT*e[5mC]*eA*eG*lGeT*eA*eA*lG*eT*eT*e[5mC])	1.237
CO-7002 (antisense eG*eT*eG*lA*eG*eG*e[5mC]*lA*eT*e[5mC]*eA*lG*eG*eT*eA*lA*eG*eT*eT*e[5mC])	1.367
CO-7003 (antisense eG*eT*eG*eA*eG*lG*e[5mC]*eA*eT*e[5mC]*lA*eG*eG*eT*eA*lA*eG*eT*eT*e[5mC])	1.066
CO-7004 (antisense eG*eT*eG*eA*lG*eG*e[5mC]*eA*eT*l[5mC]*eA*eG*eG*eT*lA*eA*eG*eT*eT*e[5mC])	1.285
CO-7005 (antisense eG*eT*eG*eG*eA*eT*dG*dT*dA*dG*dA*dT*dG*dA*dA*dT*eG*eG*e[5mC]*eA*eA*eG)	1.257
CO-7006 (antisense eG*eT*eG*eG*eA*eT*eG*eT*eA*eG*eA*eT*eG*eA*eA*eT*eG*eG*e[5mC]*eA*eA*eG)	1.279
CO-7007 (antisense eG*eT*eG*eG*eA*dT*dG*dT*eA*dG*dA*dT*dG*eA*dA*dT*dG*eG*e[5mC]*eA*eA*eG)	0.963
CO-7008 (antisense eG*eT*eG*eG*eA*lT*dG*dT*lA*dG*dA*dT*dG*lA*dA*dT*lG*eG*e[5mC]*eA*eA*eG)	1.175
CO-7009 (antisense eT*eG*eT*eG*eG*eA*eT*dG*dT*dA*dGdA*dT*dG*dA*dA*dT*eG*eG*e[5mC]*eA*eA*eG*eG)	1.289

— patent US20250320496A1, “MODULATION OF ABCB11 GENE TRANSCRIPTION USING ANTISENSE OLIGONUCLEOTIDES TARGETING REGULATORY RNAS” (CAMP4 Therapeutics Corporation, priority 2022, published 2025)
